Experimental data published in paper PMC6880826 (Beilstein Journal of Organic Chemistry, 2019).
Like-named read-outs stand apart in the source and are kept apart here.

Tests used:
[1] = Metabolic stability in mouse liver microsomes (MLM); format: in vitro ADME
[2] = Mouse pharmacokinetics, plasma and brain, oral dose; format: in vivo, CD1 mouse; conditions: p.o. 10 mg/kg
Text: The route of administration and dose were selected to most closely match relevant published mouse disease model studies. […] Table S1: Study design summary S8 (1 picture or pasted object on this page, not shown here)

Notum(81-451 Cys330Ser) = target: T1, Notum(81-451 Cys330Ser) (Homo sapiens, UniProt Q6P988, C330S); assay: Notum OPTS fluorescence inhibition assay
T1 sequence (Q6P988 81-451 C330S): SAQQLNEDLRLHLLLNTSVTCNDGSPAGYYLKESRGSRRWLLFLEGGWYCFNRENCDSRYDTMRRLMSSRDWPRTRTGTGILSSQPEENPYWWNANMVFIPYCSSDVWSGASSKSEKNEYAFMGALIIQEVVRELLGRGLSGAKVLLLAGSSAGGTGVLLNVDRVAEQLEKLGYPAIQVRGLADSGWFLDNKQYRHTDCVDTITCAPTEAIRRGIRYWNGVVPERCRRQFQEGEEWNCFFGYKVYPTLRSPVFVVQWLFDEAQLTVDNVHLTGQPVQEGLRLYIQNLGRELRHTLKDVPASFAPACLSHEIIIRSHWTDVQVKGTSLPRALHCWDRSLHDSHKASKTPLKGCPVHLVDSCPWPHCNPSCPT

P-gp (MDR1) = assay: MDCK-MDR1 monolayer permeability / P-gp efflux; format: in vitro ADME; conditions: dog; for Papp: MDCK-MDR1, Table S4; for MDCK-MDR1 AB Papp: Table S4; for efflux ratio: MDCK-MDR1, csv file, read-out: MDCK-mdr1 ER
MDCK-MDR1 monolayer = MDCK-MDR1 monolayer permeability / P-gp efflux; format: in vitro ADME; conditions: for efflux ratio: Table S4; for MDCK-mdr1 ER / MDCK-mdr1 AB / MDCK-mdr1 BA: csv file; for MDCK-mdr1 AB: AB direction; for MDCK-mdr1 BA: BA direction
[3] = Table S4, mouse liver microsomes
[4] = AB direction, read-out: MDCK-MDR1 AB Papp
[5] = BA direction, read-out: MDCK-MDR1 BA Papp

| Structure (SMILES) | MLM Cli [1, 3] | IC50 (Notum(81-451 Cys330Ser)) | MLM Cli ([1]; csv file) | Papp (P-gp (MDR1); [4]) | Papp (P-gp (MDR1); [5]) | efflux ratio (MDCK-MDR1 monolayer) | MDCK-mdr1 AB (MDCK-MDR1 monolayer) | MDCK-mdr1 BA (MDCK-MDR1 monolayer) | also measured |
| --- | --- | --- | --- | --- | --- | --- | --- | --- | --- |
| O=C(CSc1ncnc2c(C3CC3)c(Cl)sc12)N1CC2COCC2C1 (stereo not shown) [Compound 17e] | > 500 µL/min/mg | 10 nM | > 500 µL/min/mg |  |  |  |  |  |  |
| O=C(CSc1ncnc2c(C3CC3)c(Cl)sc12)N1CCc2ncccc2C1 [Compound 17l] |  | 4.6 nM |  |  |  |  |  |  |  |
| O=C(CSc1ncnc2c(C3CC3)c(Cl)sc12)N1CCn2ccnc2C1 [Compound 17m] | 290 µL/min/mg | 2.7 nM | 290 µL/min/mg | 21 ×10⁻⁶ cm/s | 25 ×10⁻⁶ cm/s | 1.2 | 21 x10–6 cm/s | 25 x10–6 cm/s | efflux ratio (P-gp (MDR1)): 1.2 |
| O=C(CSc1ncnc2c(C3CC3)c(Cl)sc12)N1CCn2cncc2C1 [Compound 17n] | 49 µL/min/mg | 2.5 nM | 49 µL/min/mg | 9 ×10⁻⁶ cm/s | 31 ×10⁻⁶ cm/s | 3.4 | 9 x10–6 cm/s | 31 x10–6 cm/s | efflux ratio (P-gp (MDR1)): 3.4 |
| O=C(CSc1ncnc2c(C3CC3)c(Cl)sc12)N1CCc2[nH]cnc2C1 [Compound 17o] |  | 2.3 nM |  |  |  |  |  |  |  |
| O=C(CSc1ncnc2c(C3CC3)c(Cl)sc12)N1CCn2cnnc2C1 [Compound 17p] | 29 µL/min/mg | 1.2 nM | 29 µL/min/mg |  | 93 ×10⁻⁶ cm/s | 98 | 0.95 x10–6 cm/s | 93 x10–6 cm/s | MDCK-MDR1 AB Papp (P-gp (MDR1); AB direction): 0.95 ×10⁻⁶ cm/s; MDCK-mdr1 ER (MDCK-MDR1 monolayer): 98 |
| O=C(CSc1ncnc2c(C3CC3)c(Cl)sc12)N1CCn2c(nnc2C(F)(F)F)C1 [Compound 17q] | 190 µL/min/mg | 8 nM | 190 µL/min/mg | 12 ×10⁻⁶ cm/s | 34 ×10⁻⁶ cm/s | 2.8 | 12 x10–6 cm/s | 34 x10–6 cm/s | efflux ratio (P-gp (MDR1)): 2.8 |
| O=C(CSc1ncnc2c(C3CC3)c(Cl)sc12)N1CCn2nncc2C1 [Compound 17r] | 110 µL/min/mg | 2.4 nM | 110 µL/min/mg | 26 ×10⁻⁶ cm/s | 28 ×10⁻⁶ cm/s | 1.1 | 26 x10–6 cm/s | 28 x10–6 cm/s | efflux ratio (P-gp (MDR1)): 1.1 |

More lines, main results first:

| MLM Cli [1, 3] | IC50 (Notum(81-451 Cys330Ser)) | MLM Cli ([1]; csv file) | Papp (P-gp (MDR1); [4]) | Papp (P-gp (MDR1); [5]) | efflux ratio (MDCK-MDR1 monolayer) | MDCK-mdr1 AB (MDCK-MDR1 monolayer) | MDCK-mdr1 BA (MDCK-MDR1 monolayer) | Structure (SMILES) | also measured |
| --- | --- | --- | --- | --- | --- | --- | --- | --- | --- |
| 1e+06 µL/min/mg |  |  |  |  |  |  |  | O=C(O)CSc1ncnc2c(C3CC3)c(Cl)sc12 [Compound 1] | Cli in mouse liver microsomes (MLM) [1]: 1.0 μL/min/mg protein; Cmax ([2]; CD1, po, brain): 500 ng/g; Tmax ([2]; CD1, po, brain): 2 h; half-life ([2]; CD1, po, brain): 426 min; AUC(0-inf) ([2]; CD1, po, plasma): 354 µg·h/mL; AUC(0-t) ([2]; CD1, po, plasma): 303 µg·h/mL; Cmax ([2]; CD1, po, plasma): 35400 ng/mL; Tmax ([2]; CD1, po, plasma): 2 h; half-life ([2]; CD1, po, plasma): 528 min; AUC0→t ([2]; brain): 3,700 h·ng/g; AUC0→∞ ([2]; brain): 4,080 h·ng/g |
|  | 7.5 nM |  |  |  |  |  |  | CN(C)C(=O)CSc1ncnc2c(C3CC3)c(Cl)sc12 [Compound 17a] |  |
|  | 91 nM |  |  |  |  |  |  | O=C(CSc1ncnc2c(C3CC3)c(Cl)sc12)N1CCCCC1 [Compound 17b] |  |
| > 500 µL/min/mg | 18 nM | > 500 µL/min/mg | 40 ×10⁻⁶ cm/s | 38 ×10⁻⁶ cm/s | 0.95 | 40 x10–6 cm/s | 38 x10–6 cm/s | O=C(CSc1ncnc2c(C3CC3)c(Cl)sc12)N1CCOCC1 [Compound 17c] | MDCK-mdr1 ER (MDCK-MDR1 monolayer): 0.95 |
|  | 48 nM |  |  |  |  |  |  | O=C(CSc1ncnc2c(C3CC3)c(Cl)sc12)N1CCS(=O)(=O)CC1 [Compound 17d] |  |
| 100 µL/min/mg | 10 nM | 100 µL/min/mg |  |  |  |  |  | O=C(CSc1ncnc2c(C3CC3)c(Cl)sc12)N1CC2(COC2)C1 [Compound 17f] |  |
| 19 µL/min/mg | 1.5 nM | 19 µL/min/mg |  | 14 ×10⁻⁶ cm/s | 3.7 | 3.8 x10–6 cm/s | 14 x10–6 cm/s | O=C1CN(C(=O)CSc2ncnc3c(C4CC4)c(Cl)sc23)CN1 [Compound 17g] | MDCK-MDR1 AB Papp (P-gp (MDR1); AB direction): 3.8 ×10⁻⁶ cm/s; MDCK-mdr1 ER (MDCK-MDR1 monolayer): 3.7 |
| 45 µL/min/mg | 1.5 nM | 45 µL/min/mg | 6 ×10⁻⁶ cm/s | 13 ×10⁻⁶ cm/s | 2.2 | 6 x10–6 cm/s | 13 x10–6 cm/s | CN1CN(C(=O)CSc2ncnc3c(C4CC4)c(Cl)sc23)CC1=O [Compound 17h] | efflux ratio (P-gp (MDR1)): 2.2 |
| 24 µL/min/mg | 7.1 nM | 24 µL/min/mg | 7.9 ×10⁻⁶ cm/s | 65 ×10⁻⁶ cm/s | 8.2 | 7.9 x10–6 cm/s | 65 x10–6 cm/s | O=C1CN(C(=O)CSc2ncnc3c(C4CC4)c(Cl)sc23)CCN1 [Compound 17i] | MDCK-mdr1 ER (MDCK-MDR1 monolayer): 8.2 |
|  | 36 nM |  |  |  |  |  |  | O=C1CN(C(=O)CSc2ncnc3c(C4CC4)c(Cl)sc23)CCCN1 [Compound 17j] |  |
|  | 49 nM |  |  |  |  |  |  | O=C1CCN(C(=O)CSc2ncnc3c(C4CC4)c(Cl)sc23)CCN1 [Compound 17k] |  |
